Here are results for 2 molecules from patent publication US11925643B2, “Toll-like receptor 4 (TLR4) inhibitors and use thereof” (MOR RESEARCH APPLICATIONS LTD., priority 2018, dated 2024).

Molecules are shown by their SMILES. Residues, ends and D or L forms follow the SMILES beside them.

Experiment [1] relates to primary cardiomyocytes. Kind of experiment: CK and LDH release by primary cardiomyocytes under LPS treatment (sepsis like). It is filed as cell-based, Rat. As to conditions: LPS treatment; 20 μM. As to the method:
(§1) Rat hearts (1-2 days old) were removed under sterile conditions and washed three times in phosphate-buffered saline (PBS) to remove excess blood cells. The hearts were minced and then gently agitated in RBD (a solution of proteolytic enzymes (Biological Institute, Ness-Ziona, Israel) prepared from fig tree extract, and diluted 1:100 in Ca^2+- and Mg^2+-free PBS) for a few cycles of 10 min each. Dulbecco's modified Eagle's medium (Biological Industries, Kibbutz Beit Haemek, Israel) containing 10% horse serum was added to supernatant suspensions containing the dissociated cells. The mixture was centrifuged at 1400 rpm for 4 min. The supernatant phase was discarded, and the cells were re-suspended. The cell suspension was diluted to 1.0×10^6 cells/ml, unless stated otherwise, and 1.5 ml of the suspension was placed in 35-mm plastic culture dishes collagen- or gelatin-coated, or on coated cover glasses. The cultures were incubated in a humidified atmosphere of 5% CO2 and 95% air at 37° C.
(§2) Primary cardiomyocytes which were obtained by method described above, were treated with exemplary decoy peptides described herein. After 30 minutes of incubation, sepsis like (LPS treatment for 6 hours), or myocardial infarction (MI) like (hypoxia for 3 hours) conditions were imposed to measure the release of CK and LDH to the medium and determine the potential cardioprotective effect of the tested decoy peptides. Cytotoxicity and level of cell damage were assessed by spectrophotometric measurement of lactate dehydrogenase (LDH) and creatine kinase (CK) activities (at 30° C.). Results are presented as CK and LDH release in arbitrary units (a.u.)
(§3) Activity of LDH and CK was determined in the cell-culture medium (25 μl) transferred into 96-well plates, using commercial L-LDH/CK kits (such as those manufactured, e.g., by Sigma-Aldrich, BioVision™ or Thermo Fisher Scientific®).
(§4) Primary cardiomyocytes were treated with peptides and peptidomimetics of SEQ ID NOs:1-7 provided at concentrations ranging from 1 μM to 20 μM. Following 30 minutes of incubation, sepsis like (LPS treatment for 6 hours) or MI like (hypoxia for 3 hours) conditions were induced to determine the potential cardioprotective effect of the tested compounds. Creatine kinase (CK) and lactate dehydrogenase (LDH) activity were assayed to determine the level of cellular damage and cell protection effect. The experimental procedure is described in Materials and Methods above. Results are presented as CK and LDH release in arbitrary units (a.u.).
(In general: LDH leaks from cells whose membrane has failed.)

Experiment [2] relates to primary cardiomyocytes. Put plainly: CK and LDH release by primary cardiomyocytes under hypoxia (MI like). It is filed as cell-based, Rat. The procedure:
as §1
Using a vacuum pump, the oxygen rich air was evacuated from an incubator containing plates with cell cultures, and a 100% Argon atmosphere was let in, while maintaining a temperature of 37° C. The cell cultures were washed with PBS twice to remove glucose from the medium. Hypoxic treated cells were cultures in PBS without glucose. These cells lasted for 180 minutes.
as §2, §3, §4

For another experiment, the system named is IκB. Put plainly: IκB protein level by Western blot in hypoxic cardiomyocytes. It is filed as cell-based. As to the method: Frozen tissue/cell cultures of liver or heart were pulverized under liquid nitrogen and placed in a homogenization buffer ([…] phosphate buffer, […] sucrose, […] EDTA, […] phenylmethylsulfonyl fluoride (PMSF), and 0.1% vol/vol tergitol, pH 7.5). Myocytes from cell cultures were homogenized in lysis buffer.
Homogenates were centrifuged at 12K rpm for 10 minutes at 4° C., the supernatant was isolated, and protein levels were visualized by immunoblotting with antibodies. Briefly, proteins (60 μg/sample) were separated using SDS-PAGE gel (12%-15%) under denaturing conditions and electro-transferred (blotted) onto nitrocellulose (Bio-Rad) for 1 hour at 100 V. Membranes were blocked with 5% nonfat milk in Tris-buffered saline with 0.1% Tween® 20 (TBST) for 1 hour at room temperature. Primary antibodies were used at a 1:200-1:1000 concentration in TBST with 5% nonfat milk overnight at 4° C. Immunodetection of β-actin/GPDH was performed as an internal control. Dye 800/680 secondary antibodies were added at a concentration of 1:15000 for 1 hour at room temperature (LI-COR® Biosciences, NE, USA). Detection was carried out with LI-CORE® Odyssey® imaging system. Quantification of signals was carried out with the Odyssey® program.
The mechanism of action of peptidomimetics of SEQ ID NOs:1, 2 and 12 was studied in vitro in cardiomyocytes, under hypoxic conditions, by determining the expression level of the IκB gene, which is regulated by activation of TLR4, and by measuring the TLR4 mRNA levels. In addition, TLR4 expression level was measured in macrophage (derived from monocytes) treated with LPS.
IκB protein level was determined by Western blot as described in Material and Methods. The amount of IκB was normalized via-a-vis the amount of β-actin serving as the loading control (the β-actin is coded by a housekeeping gene and its level is expected to remain constant under any experimental conditions).
A general note: Immunoblotting shows a protein as a band on a membrane.

In another experiment the test system is TLR2 mRNA. Put plainly: TLR2 mRNA level by RT-qPCR in hypoxic cardiomyocytes (negative control). It is filed as cell-based. As to conditions: hypoxic conditions. The procedure:
Real-time RT-PCR experiments were performed in duplicates on an ABI 7900 instrument (Applied Biosystems™) using Taqman™ Master Mix (Applied Biosystems™). The average threshold cycles (Ct) of the duplicates were used to calculate the relative expression levels of the following genes: TLR4 (Applied Biosystems™ assay primer ID: Mm00569848_m1 Tlr4), TLR2 (assay primer ID: Mm01769726_m1 Tlr2), TNF-α (assay primer ID: Mm00443260_g1 Tnf) and IL-1β (assay primer ID: Mm00434228_m1 II1b) in vitro and in vivo following hypoxia or ischemia, respectively. The reference gene was TBP and the primer used was derived from mouse TATA-box binding protein (Applied Biosystems™ assay primer ID: Mm00446973_m1 Tbp). Amounts of TLR2, TLR4, TNF-α and IL-1β mRNAs in each sample were calculated relative to TBP mRNA, based on the corresponding Cts, as Relative Quantity (RQ) values, and normalized taking as 1 a randomly selected sample of the control group (TBP mRNA). Calculation were performed using the Applied Biosystems Analysis™ software (StepOnePlus V2.2.2). All mRNA scores are presented in arbitrary units.
Next, peptidomimetics of SEQ ID NOs:1 and 2 were tested for their ability to affect the expression of TLR4. The level of TLR4 mRNA was measured by real-time reverse transcriptase polymerase chain reaction (RT-qPCR) method as described in Materials and Methods. […]
(In general: Quantitative PCR measures a nucleic acid by following its amplification.)

`CCCCCCCCNc1nc(=O)n(Cc2ccccc2)cc1C` [PM6, 1-benzyl-5-methyl-4-(octylamino)pyrimidin-2(1H)-one]: in the experiment with primary cardiomyocytes [1], the CK release result is on record as “no significant effect” and the LDH release result was “no significant effect”. Also, in the experiment on primary cardiomyocytes [2] (20 μM), the CK release entry is “significant reduction” and the LDH release entry was “significant reduction”. Also, the “inhibition of decrease of IκB protein level” value in the experiment on IκB (20 μM, compared to hypoxic cells not treated) is “roughly 7 fold”.

With `CC[C@H](C)[C@H](NC(C)=O)C(=O)N[C@H](C(=O)N[C@@H](Cc1ccccc1)C(=O)N[C@@H](C)C(N)=O)C(C)C` [SEQ ID NO:1, (2S,3S)-2-acetamido-N-((S)-1-(((S)-1-(((S)-1-amino-1-oxopropan-2-yl)amino)-1-oxo-3-phenylpropan-2-yl)amino)-3-methyl-1-oxobutan-2-yl)-3-methylpentanamide] (Ac-IVFA-NH2), in the experiment on primary cardiomyocytes [1], the CK release result is given as “subnormal levels” and the LDH release entry is given as “subnormal levels”. In the experiment on primary cardiomyocytes [2], the “minimal effective concentration (cardioprotective effect, CK and LDH release)” value was determined as 1 µM. Moreover, the “TLR2 mRNA expression level” value in the experiment with TLR2 mRNA is “relatively unaffected”. In addition, the IκB level result with IκB (normalized to β-actin) is reported as “high levels”.
